In patent US4539326A, “5-Oxo-5H-(1)benzopyrano(2,3-b)pyridine derivatives, their production and use as anti-inflammatory agents” (Takeda Chemical Industries, Ltd., priority 1982, dated 1985):

Columns and labels:
adjuvant arthritis = test: Action of inhibiting adjuvant arthritis (M. butyricum adjuvant, oral, 14 days); type: in vivo, male Sprague-Dawley rats (6-week old); settings: for Systemic inflammation score / Increase in body weight / Weight of thymus: 50 mg/kg oral once a day; for Systemic inflammation score: max score 20; for Increase in body weight / Weight of thymus: day 14; for Restraint of the increase in body weight (result in words) / Systemic inflammation score (result in words) / Weight of thymus (result in words): oral once a day for 14 days, compared with control group
Procedure: As experimental animal, male Sprague-Dawley rats (6-week old) were used.
(§1) Adjuvant arthritis was induced by suspending killed cells of mycobacteria (M. butyricum strain) in liquid paraffin and injecting the rats with the resultant suspension beneath the skin of the hind-paw. The suspension obtained by suspending 70 mg of the test specimen [disodium(7-ethyl-3-carboxylato-5-oxo-5H-[1]benzopyrano[2,3-b]pyridin-2-yl)acetate] in 7 ml of 4% gum arabic was administered orally to rats once a day at a rate of 0.5 ml per 100 g of body weight for the consecutive 14 days after the injection of adjuvant. The degrees or severities of the inflammations induced on the other hind paw not injected with adjuvant, front paws, tail and ears were graded 1 to 5, and the grades were summed up for each animal, with the highest mark in total for the four body spots being 20. In addition, effects exerted by the administration on the increase in body weight (difference between the body weights measured after 14 days and on the day of sensitization) and the weight of thymus were investigated, and were compared with those obtained with the control group.
as §1, with “in liquid paraffine and injecting” for “in liquid paraffin and injecting”, “skin of hind-paw. The” for “skin of the hind-paw. The”, “test specimen [ethyl(7-ethyl-3-ethoxycarbonyl-5-oxo-5H-[1]benzopyrano[2,3-b]pyridin-2-yl)acetate] in 7” for “test specimen [disodium(7-ethyl-3-carboxylato-5-oxo-5H-[1]benzopyrano[2,3-b]pyridin-2-yl)acetate] in 7”

phenylquinone writhing = test: mouse phenylquinone writhing method (analgesic activity); type: in vivo
[1] = tested on: carrageenin-induced edema; test: rat carrageenin-induced edema method (antiinflammatory activity); type: in vivo

Row | Compound | Systemic inflammation score (adjuvant arthritis; Experiment 2 (Table 2), day 12 after sensitization, control 6.7 ± 0.8, ** P <0.01) | Increase in body weight (adjuvant arthritis; Experiment 2 (Table 2), control 42.5 ± 3.2) | Weight of thymus (adjuvant arthritis; Experiment 2 (Table 2), control 286.5 ± 34.3) | Systemic inflammation score (adjuvant arthritis; Experiment 2 (Table 2), day 14 after sensitization, control 8.0 ± 0.5, ** P <0.01) | Restraint of the increase in body weight (result in words) (adjuvant arthritis) | Systemic inflammation score (result in words) (adjuvant arthritis) | Weight of thymus (result in words) (adjuvant arthritis) | Systemic inflammation score (adjuvant arthritis; Experiment 1 (Table 1), day 12 after sensitization, control 7.0 ± 0.9, * P <0.05) | Increase in body weight (adjuvant arthritis; Experiment 1 (Table 1), control 42.2 ± 2.5) | Weight of thymus (adjuvant arthritis; Experiment 1 (Table 1), control 211.7 ± 21.5, * P <0.05) | Systemic inflammation score (adjuvant arthritis; Experiment 1 (Table 1), day 14 after sensitization, control 8.8 ± 0.7, * P <0.05) | Analgesic activity (phenylquinone writhing) | Antiinflammatory activity [1]
1 | CCOC(=O)Cc1nc2oc3ccc(CC)cc3c(=O)c2cc1C(=O)OCC [ethyl(7-ethyl-3-ethoxycarbonyl-5-oxo-5H-[1]benzopyrano[2,3-b]pyridin-2-yl)acetate] | 3.3 ± 0.7 | 43.3 ± 8.6 g | 444.2 ± 69.9 mg | 4.0 ± 1.0 | improve the systemic inflammation score and the restraint of the increase in body weight | improve the systemic inflammation score | tendency to increase the weight of thymus | – | – | – | – | – | –
2 | CCc1ccc2oc3nc(CC(=O)O)c(C(=O)O)cc3c(=O)c2c1 [disodium(7-ethyl-3-carboxylato-5-oxo-5H-[1]benzopyrano[2,3-b]pyridin-2-yl)acetate] | – | – | – | – | improve the systemic inflammation score and the restraint of the increase in body weight | improve the systemic inflammation score | increase the weight of thymus | 3.7 ± 1.1 | 50.0 ± 3.1 g | 375 ± 52.0 mg | 4.7 ± 1.6 | neither to exhibit the antiinflammatory activity in the rat carrageenin-induced edema method and the analgesic activity | neither to exhibit the antiinflammatory activity
